Results taken from patent US20030220524A1, “Sulfur containing compounds” (priority 2000, published 2003).
Read-outs that look alike come from different tables or passages of the source.

Key:
Assay in all cases: MTT assay
Type in all cases: cell-based, human
NB-4 leukemic cell line = conditions: 48 h, read-out: MTT50
W1 leukemic cell line = conditions: 48 h, read-out: MTT50
AML-2 leukemic cell line = conditions: 48 h, read-out: MTT50
G2 leukemic cell line = conditions: Homo sapiens, 48 h, read-out: MTT50

Q: How did the IC50 (NB-4 leukemic cell line; Homo sapiens) turn out when `CSCSSC` [Compound N, 2,3,5-trithiahexane] was run?
A: 60.8 µM

Q: Which IC50 (NB-4 leukemic cell line; Homo sapiens, NB-4) does the source give for `CSSCC(=O)c1ccccc1` [Compound P, phenacyl methyl disulphide] here?
A: 60.8 µM

Q: How did the IC50 (W1 leukemic cell line) turn out when `CSSCS(=O)(=O)c1ccc(C)cc1` [Compound C, α-p-toluenesulfonyl dimethyl disulphide] was run?
A: 8.7 µM

Q: And the IC50 (AML-2 leukemic cell line)?
A: 13.2 µM

Q: What about the IC50 (NB-4 leukemic cell line; NB-4) of the same compound?
A: 11.7 µM

Q: `CS(=O)(=O)CSSc1ccccc1` [E, 5-phenyl-2,4,5-trithiapentane 2,2-dioxide] was tested. Which IC50 (G2 leukemic cell line) did it give?
A: 3.6 µM

Q: And the IC50 (AML-2 leukemic cell line; Homo sapiens)?
A: 15.6 µM

Q: And the IC50 (NB-4 leukemic cell line; Homo sapiens, NB-4)?
A: 25.4 µM

Q: `CSSc1ccc([N+](=O)[O-])cc1` [M, methyl p-nitrophenyl disulphide] was tested. Which IC50 (W1 leukemic cell line; Homo sapiens) did it give?
A: 4.8 µM

Q: And the IC50 (G2 leukemic cell line)?
A: 11.3 µM

Q: What about the IC50 (NB-4 leukemic cell line; Homo sapiens, NB-4) of the same compound?
A: 21.2 µM

Q: Which results are given for `CCC(=O)OCSSc1ccccc1` [Compound Q, 1-phenyl-1,2-dithiapropyl propionate]?
A: IC50 (W1 leukemic cell line; Homo sapiens): 13 µM; IC50 (G2 leukemic cell line): 14.7 µM

Q: For `CSSCCS(C)(=O)=O` [F, 2,3,6-trithiaheptane 6,6,-dioxide], which IC50 (AML-2 leukemic cell line) is on record?
A: 37.6 µM
